In patent publication US9434993B2, “Systems for identifying cosmetic agents for skin care compositions” (The Procter & Gamble Company, priority 2011, dated 2016):
“Also recorded” adds a separate entry of the source.

Columns and labels:
[1] = system: Telomerized-keratinocytes; assay: Microscopic evaluation of cell morphology, telomerized keratinocytes; format: cell-based, human; settings: 10 μM in DMSO for 6 hr; vs 0.1% DMSO vehicle control
Protocol: (§1) All cells were incubated at 37° C. in a humidified incubator with 5% CO2. At t=−24 hours cells were trypsinized from T-75 flasks and plated into 6-well plates in basal growth medium. At t=0 media was removed and replaced with the appropriate dosing solution as per the experimental design. Dosing solutions were prepared the previous day in sterile 4 ml Falcon snap cap tubes. Pure test materials may be prepared at a concentration of 1-200 μM, and botanical extracts may be prepared at a concentration of 0.001 to 1% by weight of the dosing solution. After 6 to 24 hours of chemical exposure, cells were viewed and imaged. The wells were examined with a microscope before cell lysis and RNA isolation to evaluate for morphologic evidence of toxicity. […] Cells were then lysed with 350 ul/well of RLT buffer containing β-mercaptoethanol (Qiagen, Valencia, Calif.), transferred to a 96-well plate, and stored at −20° C.

BJ fibroblasts = assay: Microscopic evaluation of cell morphology, BJ fibroblasts; format: cell-based, human; settings: 10 μM in DMSO for 6 hr; vs 0.1% DMSO vehicle control
Protocol: as §1

For `CC1=C(/C=C/C(C)=C/C=C/C(C)=C/C(=O)O)C(C)(C)CCC1` [tRA, all-trans-retinoic acid], the “morphology of treated keratinocytes” value [1] was “marked morphologic changes; also recorded: dramatic morphologic changes” and the “morphology of treated fibroblasts” value (BJ fibroblasts) was “no apparent morphologic effect”.
